Consider 1 compound from patent US9791463B2, “Methods for the selective detection of alkyne-presenting molecules and related compositions and systems” (Lawrence Livermore National Security, LLC, priority 2013, dated 2017).

Series [1] is described as follows: Visual fluorescence analysis with a UV lamp (long wavelength, 365 nm). Format: physicochemical. As to conditions: λ=365 nm; equimolar solutions of probe and adduct. An excerpt: Both vials contain equimolar amounts of the azido probe and EE2-probe adduct respectively.
Once an azido probe as herein described (e.g. 3) is synthesized (Example 1), it can be reacted with commercially available EE2. For example, reaction of azido probe 3 with EE2 in the presence of CuSO4.5H2O and sodium ascorbate in a 2:1 tert-butanol-water mixture at room temperature overnight yielded the triazole-containing EE2-probe adduct 4 in nearly quantitative yield (>95%) as an off-white solid after column chromatography. The use of another source of Cu(I) ion such as CuBr or CuI can be employed in this step, eliminating the need for sodium ascorbate. However, copper(I) halides can be avoided if a reduction in unwanted background fluorescence when using the spectrophotometer is desired. If a cost reduction is desired, instead of copper(I) halides readily available and inexpensive Cu(II) sulfate pentahydrate and sodium ascorbate can be purchased in multigram quantities and used in reactions with EE2. […] The calculated Stokes' shift based on this preliminary measurements is Δλ=48 nm.

Series [2] in a line: Fluorescence measurement of azido probe and EE2-probe adduct (spectrometer). Format: physicochemical. Conditions: excited at λ=319 nm; initial measurements. An excerpt: A feature of the probes herein described is the means by which a readable fluorescent signal can be reliably detected once the azidonaphthalimidoyl probe (see Example 1, compound 3) reacts with EE2. Thus, fluorescent measurements can be conducted on azido probe 3 (Example 1) before and after its reaction with commercially available 17α-ethinylestradiol (EE2, 1) (FIG. 5). […] Thus, the fluorescence profile of the EE2-probe adduct 4 can be obtained at different concentrations in order to obtain the lowest limit of detection for this analytical approach (Panel 1 of FIG. 5). Once that lower limit has been determined, a second set of experiments can be undertaken to test the efficacy and fidelity of the Click reaction. […] After the overnight run, the samples can be extracted into an organic layer (CH2Cl2 or diethyl ether), evaporated, redissolved in the solvent of choice for the fluorescence measurements (e.g. H2O, or a combination of MeOH/H2O) and their fluorescent intensities measured. This second set of experiments is designed to test the real case scenario where the actual, unknown EE2 concentration in a given sample can be detected using the azido probe.
Once an azido probe as herein described (e.g. 3) is synthesized (Example 1), it can be reacted with commercially available EE2. […] The calculated Stokes' shift based on this preliminary measurements is Δλ=48 nm.

On to `[N-]=[N+]=Nc1ccc2c3c(cccc13)C(=O)N(CCOCCO)C2=O` [Probe 3], for which, in series [1], the “qualitative fluorescence under UV lamp” value was “does not”. The “fluorescence of the probe” value in series [2] is reported as “marginal fluorescence”.
